Literature values, collected in patent US20260232776A1, “COMBINATIONS OF DENDRITIC CELL-BASED VACCINES AND CHECKPOINT INHIBITORS” (Mayo Foundation for Medical Education and Research, priority 2023, published 2026).

System: p44/p42 MAPK or SAPK/JNK

## C[S+]([O-])c1ccc(-c2nc(-c3ccncc3)c(-c3ccc(F)cc3)[nH]2)cc1 (stereo not shown) [SBA203580, adezmapimod]
  activity against other MAPKs such as p44/p42 MAPK or SAPK/JNK: little activity
